Experimental data reported in PubChem BioAssay AID222 (DTP/NCI, 2004).
Values joined by “and” are separate entries in the source; they are usually repeats but may differ in a detail not shown here. Equal values may be shown once. Toxic doses and inconclusive results are not listed. How the source made its calls: active means survival T/C of 150% or more; inactive means T/C below 125% in these data. Starred links: 1 amine or outer side, 2 acyl side, 3 side chain; linkers in the order of their positions; H or OH if unused. Positions of bridges follow the written chain, without caps; N, C: chain ends. Non-standard residues stand in square brackets, D forms with d. Residues, ends and D or L forms follow the SMILES beside them. Chains are numbered I, II in the order given. Actinocin(1to9) = Cc1c2oc3c(C)ccc(C(=O)[*:2])c3nc-2c(C(=O)[*:1])c(N)c1=O; NMeV = CN[CH](C(=O)O)C(C)C; Aze = O=C(O)[CH]1CCN1; Sar = CNCC(=O)O

System: C57BL/6 mice, intracerebral ependymoblastoma, median survival T/C
Experiment: NCI In Vivo Anticancer Drug Screen. Data for tumor model Ependymoblastoma (intracerebral) in C57BL/6 mice
Settings: endpoint: median survival time, higher = longer survival
Method: The antitumor activity of compounds was measured in mice bearing transplantable tumors. Survival or tumor size were measured and the results are expressed as the measurement made in the treated group (T) divided by the measurement made in the vehicle treated control group (C). The tumor model used in this assay is Ependymoblastoma (intracerebral) in C57BL/6 mice

[1] = dose: 32.0 mg/kg/injection, schedule: Q01DX005 (ip), vehicle: Klucel (hydroxypropylcellulose) (HPC)
[2] = dose: 64.0 mg/kg/injection, schedule: Q01DX005 (ip), vehicle: saline with Tween-80
[3] = dose: 128.0 mg/kg/injection, schedule: Q01DX005 (ip), vehicle: Klucel (hydroxypropylcellulose) (HPC)
[4] = dose: 128.0 mg/kg/injection, schedule: Q01DX005 (ip), vehicle: saline with Tween-80
[5] = dose: 256.0 mg/kg/injection, schedule: Q01DX005 (ip), vehicle: Klucel (hydroxypropylcellulose) (HPC)
[6] = dose: 256.0 mg/kg/injection, schedule: Q01DX005 (ip), vehicle: saline with Tween-80
[7] = dose: 512.0 mg/kg/injection, schedule: Q01DX005 (ip), vehicle: Klucel (hydroxypropylcellulose) (HPC)
[8] = dose: 512.0 mg/kg/injection, schedule: Q01DX005 (ip), vehicle: saline with Tween-80
[9] = dose: 16.0 mg/kg/injection, schedule: Q01DX005 (ip), vehicle: saline with Tween-80
[10] = dose: 32.0 mg/kg/injection, schedule: Q01DX005 (ip), vehicle: saline with Tween-80
[11] = dose: 16.0 mg/kg/injection, schedule: Q01DX005 (ip), vehicle: saline
[12] = dose: 64.0 mg/kg/injection, schedule: Q01DX005 (ip), vehicle: saline
[13] = dose: 45.0 mg/kg/injection, schedule: Q01DX005 (ip), vehicle: saline with Tween-80
[14] = dose: 90.0 mg/kg/injection, schedule: Q01DX005 (ip), vehicle: saline with Tween-80
[15] = dose: 180.0 mg/kg/injection, schedule: Q01DX005 (ip), vehicle: saline with Tween-80
[16] = dose: 360.0 mg/kg/injection, schedule: Q01DX005 (ip), vehicle: saline with Tween-80
[17] = dose: 720.0 mg/kg/injection, schedule: Q01DX005 (ip), vehicle: saline with Tween-80
[18] = dose: 256.0 mg/kg/injection, schedule: Q01DX001 (ip), vehicle: Klucel (hydroxypropylcellulose) (HPC)
[19] = dose: 256.0 mg/kg/injection, schedule: Q01DX005 (oral), vehicle: Klucel (hydroxypropylcellulose) (HPC)
[20] = dose: 1024.0 mg/kg/injection, schedule: Q01DX001 (ip), vehicle: Klucel (hydroxypropylcellulose) (HPC)
[21] = dose: 1024.0 mg/kg/injection, schedule: Q01DX005 (oral), vehicle: Klucel (hydroxypropylcellulose) (HPC)

Measured: T/C

Cc1c2oc3c(C)ccc(C(=O)NC4C(=O)NC(C(C)C)C(=O)N5CCCC5C(=O)N(C)CC(=O)N(C)C(C(C)C)C(=O)OC4C)c3nc-2c(C(=O)NC2C(=O)NC(C(C)C)C(=O)N3CCC3C(=O)N(C)CC(=O)N(C)C(C(C)C)C(=O)OC2C)c(N)c1=O (configuration not stated) (I: TV[Aze][Sar][NMeV] / II: TVP[Sar][NMeV]; ester I:1-I:C, II:1-II:C; linker I:N-II:N via Actinocin(1to9); configuration not given here)
inactive: dose: 12.5 micrograms/kg/injection, schedule: Q01DX005 (ip), vehicle: saline 110 % of control | dose: 25.0 micrograms/kg/injection, schedule: Q01DX005 (ip), vehicle: saline 107 % of control | dose: 50.0 micrograms/kg/injection, schedule: Q01DX005 (ip), vehicle: saline 101 % of control | dose: 100.0 micrograms/kg/injection, schedule: Q01DX005 (ip), vehicle: saline 111 % of control

Cc1c[nH]c(=O)[nH]c1=O
inactive: [1] 99 % of control | [2] 97 % of control | [3] 97 % of control | [4] 102 % of control | [5] 95 % of control | [6] 97 % of control | [7] 106 % of control | [8] 88 % of control | dose: 1024.0 mg/kg/injection, schedule: Q01DX005 (ip), vehicle: saline with Tween-80 107 % of control

C[C@]1(O)CC[C@H]2[C@@H]3CCC4=CC(=O)CC[C@]4(C)[C@@]3(F)[C@@H](O)C[C@@]21C
inactive: dose: 8.0 mg/kg/injection, schedule: Q01DX005 (ip), vehicle: saline with Tween-80 94 % of control and 99 % of control | [9] 93 % of control and 104 % of control | [10] 102 % of control and 105 % of control | [2] 93 % of control and 96 % of control | [4] 93 % of control and 96 % of control | [6] 94 % of control and 100 % of control | [8] 93 % of control and 103 % of control

CC/C(=C(/CC)c1ccc(O)cc1)c1ccc(O)cc1
inactive: dose: 8.0 mg/kg/injection, schedule: Q01DX005 (ip), vehicle: saline 94 % of control | [9] 101 % of control | [11] 100 % of control | [10] 112 % of control | dose: 32.0 mg/kg/injection, schedule: Q01DX005 (ip), vehicle: saline 99 % of control | [2] 100 % of control | [12] 110 % of control

NC(C/[N+]([O-])=N/O)C(=O)O (configuration not stated)
inactive: dose: 7.0 mg/kg/injection, schedule: Q01DX005 (ip), vehicle: saline 119 % of control | dose: 14.0 mg/kg/injection, schedule: Q01DX005 (ip), vehicle: saline 119 % of control | dose: 56.0 mg/kg/injection, schedule: Q01DX005 (ip), vehicle: saline 95 % of control

CC(=O)Nc1ccc(/C=N/NC(N)=S)cc1
inactive: [13] 98 % of control | [14] 93 % of control and 102 % of control | [15] 92 % of control and 104 % of control | [16] 96 % of control and 98 % of control | [17] 105 % of control and 110 % of control

CCOC(=O)CNC(=O)CCCCSc1ncnc2nc[nH]c12
inactive: dose: 1.0 mg/kg/injection, schedule: Q01DX005 (ip), vehicle: Klucel (hydroxypropylcellulose) (HPC) 109 % of control | dose: 4.0 mg/kg/injection, schedule: Q01DX005 (ip), vehicle: saline 103 % of control | dose: 8.0 mg/kg/injection, schedule: Q01DX005 (ip), vehicle: Klucel (hydroxypropylcellulose) (HPC) 104 % of control | dose: 16.0 mg/kg/injection, schedule: Q01DX001 (ip), vehicle: Klucel (hydroxypropylcellulose) (HPC) 104 % of control and 105 % of control and 106 % of control | dose: 16.0 mg/kg/injection, schedule: Q01DX001 (oral), vehicle: Klucel (hydroxypropylcellulose) (HPC) 95 % of control and 102 % of control | [11] 95 % of control and 103 % of control | dose: 16.0 mg/kg/injection, schedule: Q01DX005 (oral), vehicle: Klucel (hydroxypropylcellulose) (HPC) 94 % of control | dose: 16.0 mg/kg/injection, schedule: Q#A X002 (ip), vehicle: Klucel (hydroxypropylcellulose) (HPC) 108 % of control | [1] 103 % of control and 117 % of control | dose: 32.0 mg/kg/injection, schedule: Q## X006 (ip), vehicle: Klucel (hydroxypropylcellulose) (HPC) 102 % of control | dose: 64.0 mg/kg/injection, schedule: Q01DX001 (ip), vehicle: Klucel (hydroxypropylcellulose) (HPC) 90 % of control and 100 % of control and 108 % of control | dose: 64.0 mg/kg/injection, schedule: Q01DX001 (oral), vehicle: Klucel (hydroxypropylcellulose) (HPC) 102 % of control and 103 % of control | [12] 102 % of control and 107 % of control | dose: 64.0 mg/kg/injection, schedule: Q01DX005 (oral), vehicle: Klucel (hydroxypropylcellulose) (HPC) 106 % of control | dose: 64.0 mg/kg/injection, schedule: Q## X006 (ip), vehicle: Klucel (hydroxypropylcellulose) (HPC) 120 % of control | dose: 64.0 mg/kg/injection, schedule: Q#A X002 (ip), vehicle: Klucel (hydroxypropylcellulose) (HPC) 116 % of control | [3] 113 % of control and 116 % of control | dose: 128.0 mg/kg/injection, schedule: Q## X006 (ip), vehicle: Klucel (hydroxypropylcellulose) (HPC) 106 % of control | [18] 96 % of control and 106 % of control and 113 % of control | dose: 256.0 mg/kg/injection, schedule: Q01DX001 (oral), vehicle: Klucel (hydroxypropylcellulose) (HPC) 107 % of control | dose: 256.0 mg/kg/injection, schedule: Q01DX005 (ip), vehicle: saline 92 % of control and 109 % of control | [19] 108 % of control | dose: 256.0 mg/kg/injection, schedule: Q## X006 (ip), vehicle: Klucel (hydroxypropylcellulose) (HPC) 115 % of control | dose: 256.0 mg/kg/injection, schedule: Q#A X002 (ip), vehicle: Klucel (hydroxypropylcellulose) (HPC) 114 % of control | dose: 266.0 mg/kg/injection, schedule: Q01DX005 (ip), vehicle: Klucel (hydroxypropylcellulose) (HPC) 113 % of control and 120 % of control | [7] 108 % of control | dose: 512.0 mg/kg/injection, schedule: Q## X006 (ip), vehicle: Klucel (hydroxypropylcellulose) (HPC) 105 % of control | [20] 103 % of control and 106 % of control and 112 % of control | dose: 1024.0 mg/kg/injection, schedule: Q01DX001 (oral), vehicle: Klucel (hydroxypropylcellulose) (HPC) 91 % of control and 97 % of control | dose: 1024.0 mg/kg/injection, schedule: Q01DX005 (ip), vehicle: saline 109 % of control | [21] 115 % of control | dose: 1024.0 mg/kg/injection, schedule: Q#A X002 (ip), vehicle: Klucel (hydroxypropylcellulose) (HPC) 99 % of control

Nc1ccc(S(N)(=O)=O)cc1
inactive: [13] 97 % of control | [14] 88 % of control | [15] 96 % of control | [16] 100 % of control | [17] 90 % of control

CCC(=O)O[C@H]1CC[C@H]2[C@@H]3[C@@H](C)CC4=CC(=O)CC[C@]4(C)[C@H]3CC[C@]12C
inactive: [1] 104 % of control | dose: 64.0 mg/kg/injection, schedule: Q01DX005 (ip), vehicle: Klucel (hydroxypropylcellulose) (HPC) 105 % of control and 106 % of control | dose: 128.0 mg/kg/injection, schedule: Q01DX001 (ip), vehicle: Klucel (hydroxypropylcellulose) (HPC) 106 % of control | [3] 105 % of control and 111 % of control | dose: 128.0 mg/kg/injection, schedule: Q01DX005 (oral), vehicle: Klucel (hydroxypropylcellulose) (HPC) 109 % of control | [18] 93 % of control | [5] 103 % of control and 113 % of control | [19] 97 % of control | dose: 512.0 mg/kg/injection, schedule: Q01DX001 (ip), vehicle: Klucel (hydroxypropylcellulose) (HPC) 103 % of control | [7] 105 % of control and 107 % of control | dose: 512.0 mg/kg/injection, schedule: Q01DX005 (oral), vehicle: Klucel (hydroxypropylcellulose) (HPC) 90 % of control | [20] 96 % of control | [21] 113 % of control

C1CN1c1nc(N2CC2)nc(N2CC2)n1
inactive: dose: 0.12 mg/kg/injection, schedule: Q01DX005 (ip), vehicle: saline 111 % of control | dose: 0.25 mg/kg/injection, schedule: Q01DX005 (ip), vehicle: saline 124 % of control
